According to US20220305012A1, “L[…] TREATING SLEEP ISSUES” (EISAI R&D MANAGEMENT CO., LTD., priority 2019, published 2022):

Tests used:
Type in all cases: in vivo, human
[1] = test system: Subjects Having Insomnia Disorder; assay: Example 2: minutes asleep in sleep stages (N1, N2, N3, REM, non-REM); settings: both doses (FIG. 15)
Experimental: FIG. 13A, FIG. 13B, and FIG. 13C show the change from baseline (least squares mean) in the minutes asleep during Stage N1, Stage N2, and Stage N3 sleep, respectively, at Nights 1/2 and Nights 29/30 in patients treated with placebo, 6.25 mg of zolpidem, 5 mg of lemborexant, or 10 mg of lemborexant.

[2] = test system: Subjects Having Insomnia Disorder; assay: Example 1: Insomnia Severity Index Total Score (Items 1-7)
Description: As used herein, the term “Insomnia Severity Index”, abbreviated as “ISI”, is an index calculated using a 7-item, self-report questionnaire assessing the nature, severity, and impact of insomnia (see Bastien, C. H., et al. “Validation of the Insomnia Severity Index as an outcome measure for insomnia research.” Sleep Med. 2001; 2(4): 297-307). The questionnaire evaluates: (1) severity of sleep onset; (2) sleep maintenance; (3) early morning awakening problems; (4) sleep dissatisfaction; (5) interference caused by sleep difficulties with daytime functioning; (6) noticeability of sleep problems by others; and (7) distress caused by the sleep difficulties. A 5-point scale is used to rate each item (0=no problem to 4=very severe problem) yielding a total score from 0 to 28. Total ISI score (items (1)-(7)) and daytime functioning (items (4)-(7)) are analyzed separately.
Month 1 Assessment: Standard safety assessments were performed on the subject. A blood sample was collected for determination of plasma concentration of lemborexant and its metabolites, and the ISI, FSS, PGI-Insomnia, EQ-5D-3L, and eC-SSR were completed.
Month 3 Assessment: All assessments conducted at the Month 1 Assessment were repeated.
Month 6 Assessment: All assessments conducted at the Month 1 Assessment were repeated, and subjects completed the WPAI-GH.

[3] = test system: Subjects Having Insomnia Disorder; assay: Example 3: proportion of sSOL responders (pooled Examples 1 and 2)
Experimental: The data collected in studies described in Example 1 and Example 2 were pooled and the response of each subject was analyzed.

[4] = Example 2: plasma concentrations of lemborexant and metabolites
Experimental: Within 5 minutes of the subject's mean habitual bedtime, study drug was administered and an overnight polysomnogram recording was initiated. At completion of the recording the following morning (Day 2), postural stability and cognitive performance were assessed. On the Day 2 evening, subjects returned to the clinic and a blood sample was collected before administering study drug, and then study drug was administered within 5 minutes of the subject's mean habitual bedtime. Again, a polysomnogram recording was initiated. The next morning (Day 3), postural stability and cognitive performance were assessed. A blood sample was also collected.
On the evening of Day 30, subjects returned to the clinic. A pre-dose blood sample was collected and study drug was again administered within 5 minutes of the subject's mean habitual bedtime. A polysomnogram recording was initiated. The following morning (Day 31), postural stability and cognitive performance were assessed and a blood sample was obtained. The ISI, FSS, EQ-5D-3L and PGI-Insomnia were administered. Blood and urine samples were collected for routine safety assessment. An electrocardiogram was performed, and vital signs and weight were assessed. The eC-SSRS was then administered to the subject. At 1.5 hours after waketime, subjects rated their morning sleepiness level.

[5] = First 7 Days, Lemborexant 10 mg
[6] = Lemborexant 5 mg dose, Day 2 Post-Dose
[7] = Lemborexant 5 mg dose, Day 2 Pre-Dose
[8] = Lemborexant 5 mg dose, Day 29 Post-Dose
[9] = Lemborexant 5 mg dose, Day 29 Pre-Dose
[10] = Lemborexant 10 mg dose, Day 2 Post-Dose
[11] = Lemborexant 10 mg dose, Day 2 Pre-Dose
[12] = Lemborexant 10 mg dose, Day 29 Post-Dose
[13] = Lemborexant 10 mg dose, Day 29 Pre-Dose

SMILES: Cc1ncc(OC[C@@]2(c3cccc(F)c3)C[C@H]2C(=O)Nc2ccc(F)cn2)c(C)n1 [Lemborexant, (1R,2S)-2-(((2,4-dimethylpyrimidin-5-yl)oxy)methyl)-2-(3-fluorophenyl)-N-(5-fluoropyridin-2-yl)cyclopropanecarboxamide]
- non-REM sleep [1]: greater increase in non-REM sleep compared to treatment with placebo and zolpidem ER
- insomnia severity index score compared with placebo ([2]; 5 mg and 10 mg, at the equivalent timepoint (Tables 6 and 7: daytime functioning and total score)): greater decrease in insomnia severity index score than subjects treated with placebo
- ISI Total Score (Items 1-7), Mean ([2]; 5 mg, Month 1): 12.6
- ISI Total Score (Items 1-7), Median ([2]; 5 mg, Month 1): 12.0
- ISI Total Score (Items 1-7), Mean ([2]; 5 mg, Month 3): 10.8
- ISI Total Score (Items 1-7), Median ([2]; 5 mg, Month 3): 10.0
- ISI Total Score (Items 1-7), Mean ([2]; 5 mg, Month 6): 9.6
- ISI Total Score (Items 1-7), Median ([2]; 5 mg, Month 6): 9.0
- ISI Total Score (Items 1-7), Mean ([2]; 5 mg, Study Baseline): 19.6
- ISI Total Score (Items 1-7), Median ([2]; 5 mg, Study Baseline): 19.0
- ISI Total Score Change from Study Baseline, Mean ([2]; 5 mg, after 1 Month): −7.1
- ISI Total Score Change from Study Baseline, Median ([2]; 5 mg, after 1 Month): −6.0
- ISI Total Score Change from Study Baseline, Mean ([2]; 5 mg, after 3 Months): −8.6
- ISI Total Score Change from Study Baseline, Median ([2]; 5 mg, after 3 Months): −8.0
- ISI Total Score Change from Study Baseline, Mean ([2]; 5 mg, after 6 Months): −9.9
- ISI Total Score Change from Study Baseline, Median ([2]; 5 mg, after 6 Months): −10.0
- ISI Total Score LSM treatment difference: Lemborexant/Placebo ([2]; 5 mg, change from Study Baseline after 1 Month): −1.47
- ISI Total Score LSM treatment difference: Lemborexant/Placebo ([2]; 5 mg, change from Study Baseline after 3 Months): −2.02
- ISI Total Score LSM treatment difference: Lemborexant/Placebo ([2]; 5 mg, change from Study Baseline after 6 Months): −2.10
- ISI Total Score (Items 1-7), Mean ([2]; 10 mg, Month 1): 12.0
- ISI Total Score (Items 1-7), Median ([2]; 10 mg, Month 1): 12.0
- ISI Total Score (Items 1-7), Mean ([2]; 10 mg, Month 3): 10.2
- ISI Total Score (Items 1-7), Median ([2]; 10 mg, Month 3): 10.0
- ISI Total Score (Items 1-7), Mean ([2]; 10 mg, Month 6): 9.4
- ISI Total Score (Items 1-7), Median ([2]; 10 mg, Month 6): 9.0
- ISI Total Score (Items 1-7), Mean ([2]; 10 mg, Study Baseline): 19.0
- ISI Total Score (Items 1-7), Median ([2]; 10 mg, Study Baseline): 19.0
- ISI Total Score Change from Study Baseline, Mean ([2]; 10 mg, after 1 Month): −7.2
- ISI Total Score Change from Study Baseline, Median ([2]; 10 mg, after 1 Month): −6.0
- ISI Total Score Change from Study Baseline, Mean ([2]; 10 mg, after 3 Months): −8.9
- ISI Total Score Change from Study Baseline, Median ([2]; 10 mg, after 3 Months): −9.0
- ISI Total Score Change from Study Baseline, Mean ([2]; 10 mg, after 6 Months): −9.8
- ISI Total Score Change from Study Baseline, Median ([2]; 10 mg, after 6 Months): −9.5
- ISI Total Score LSM treatment difference: Lemborexant/Placebo ([2]; 10 mg, change from Study Baseline after 1 Month): −1.87
- ISI Total Score LSM treatment difference: Lemborexant/Placebo ([2]; 10 mg, change from Study Baseline after 3 Months): −2.57
- ISI Total Score LSM treatment difference: Lemborexant/Placebo ([2]; 10 mg, change from Study Baseline after 6 Months): −2.35
- Subjective Sleep Onset Latency Responder, No, (%) ([3]; First 7 Days, Lemborexant 5 mg): (86.3) %
- Subjective Sleep Onset Latency Responder, Yes, (%) ([3]; First 7 Days, Lemborexant 5 mg): (12.4) %
- Subjective Sleep Onset Latency Responders, Difference of proportion vs. Placebo ([3]; First 7 Days, Lemborexant 5 mg): 7.80
- Subjective Sleep Onset Latency Responder, No, (%) [3, 5]: (86.2) %
- Subjective Sleep Onset Latency Responder, Yes, (%) [3, 5]: (12.6) %
- Subjective Sleep Onset Latency Responders, Difference of proportion vs. Placebo [3, 5]: 7.80
- Subjective Sleep Onset Latency Responder, No, (%) ([3]; Month 1, Lemborexant 5 mg): (76.8) %
- Subjective Sleep Onset Latency Responder, Yes, (%) ([3]; Month 1, Lemborexant 5 mg): (18.4) %
- Subjective Sleep Onset Latency Responders, Difference of proportion vs. Placebo ([3]; Month 1, Lemborexant 5 mg): 8.28
- Subjective Sleep Onset Latency Responder, No, (%) ([3]; Month 1, Lemborexant 10 mg): (75.8) %
- Subjective Sleep Onset Latency Responder, Yes, (%) ([3]; Month 1, Lemborexant 10 mg): (21.0) %
- Subjective Sleep Onset Latency Responders, Difference of proportion vs. Placebo ([3]; Month 1, Lemborexant 10 mg): 11.14
- proportion of sSOL responders compared with placebo ([3]; both doses, first 7 days and end of month 1, responder: sSOL of 20 or less minutes provided baseline sSOL at least 30 minutes (Table 30)): statistically significantly superior
- Plasma Concentrations, BLQ (<0.0500 ng/mL), n (%) [4, 6]: 6 (2.3) n (%)
- Plasma Concentrations, Mean (SD) [4, 6]: 5.3 (2.55) ng/mL
- Plasma Concentrations, Median [4, 6]: 5.0 ng/mL
- Plasma Concentrations, BLQ (<0.0500 ng/mL), n (%) [4, 7]: 10 (3.9) n (%)
- Plasma Concentrations, Mean (SD) [4, 7]: 2.1 (1.48) ng/mL
- Plasma Concentrations, Median [4, 7]: 1.8 ng/mL
- Plasma Concentrations, BLQ (<0.0500 ng/mL), n (%) [4, 8]: 6 (2.4) n (%)
- Plasma Concentrations, Mean (SD) [4, 8]: 10.7 (6.66) ng/mL
- Plasma Concentrations, Median [4, 8]: 9.1 ng/mL
- Plasma Concentrations, BLQ (<0.0500 ng/mL), n (%) [4, 9]: 8 (3.1) n (%)
- Plasma Concentrations, Mean (SD) [4, 9]: 7.3 (5.60) ng/mL
- Plasma Concentrations, Median [4, 9]: 6.1 ng/mL
- Plasma Concentrations, BLQ (<0.0500 ng/mL), n (%) [4, 10]: 5 n (%)
- Plasma Concentrations, Mean (SD) [4, 10]: 11.5 ng/mL
- Plasma Concentrations, Median [4, 10]: 10.4 ng/mL
- Plasma Concentrations, BLQ (<0.0500 ng/mL), n (%) [4, 11]: 15 n (%)
- Plasma Concentrations, Mean (SD) [4, 11]: 4.4 ng/mL
- Plasma Concentrations, Median [4, 11]: 3.7 ng/mL
- Plasma Concentrations, BLQ (<0.0500 ng/mL), n (%) [4, 12]: 6 n (%)
- Plasma Concentrations, Mean (SD) [4, 12]: 21.1 ng/mL
- Plasma Concentrations, Median [4, 12]: 19.6 ng/mL
- Plasma Concentrations, BLQ (<0.0500 ng/mL), n (%) [4, 13]: 6 n (%)
- Plasma Concentrations, Mean (SD) [4, 13]: 15.1 ng/mL
- Plasma Concentrations, Median [4, 13]: 13.7 ng/mL
